Measurements taken from ChEMBL document CHEMBL4507291 (2021).

How the values were obtained:
[1] = test system: Tyrosine-protein kinase ABL1 (Homo sapiens), P00519 [F317L]
[2] = molecular target: Tyrosine-protein kinase ABL1 (Homo sapiens) (UniProt P00519)
[3] = molecular target: Ankyrin repeat and protein kinase domain-containing protein 1 (Homo sapiens) (UniProt Q8NFD2)
[4] = molecular target: Cyclin-dependent kinase 5 (Homo sapiens) (UniProt Q00535)
[5] = molecular target: Ephrin type-B receptor 6 (Homo sapiens) (UniProt O15197)
[6] = molecular target: Mitogen-activated protein kinase 7 (Homo sapiens) (UniProt Q13164)
[7] = molecular target: Mitogen-activated protein kinase 15 (Homo sapiens) (UniProt Q8TD08)
[8] = test system: Receptor-type tyrosine-protein kinase FLT3 (Homo sapiens), P36888 [UNDEFINED MUTATION]
[9] = molecular target: Tyrosine-protein kinase Fyn (Homo sapiens) (UniProt P06241)
[10] = test system: Mast/stem cell growth factor receptor Kit (Homo sapiens), P10721 [V559D,V654A]
[11] = molecular target: Serine/threonine-protein kinase LATS1 (Homo sapiens) (UniProt O95835)
[12] = molecular target: Dual specificity mitogen-activated protein kinase kinase 4 (Homo sapiens) (UniProt P45985)
[13] = molecular target: Dual specificity mitogen-activated protein kinase kinase 5 (Homo sapiens) (UniProt Q13163)
[14] = molecular target: T1, Muscle, skeletal receptor tyrosine-protein kinase (Homo sapiens) (UniProt O15146)
T1 sequence (whole entry): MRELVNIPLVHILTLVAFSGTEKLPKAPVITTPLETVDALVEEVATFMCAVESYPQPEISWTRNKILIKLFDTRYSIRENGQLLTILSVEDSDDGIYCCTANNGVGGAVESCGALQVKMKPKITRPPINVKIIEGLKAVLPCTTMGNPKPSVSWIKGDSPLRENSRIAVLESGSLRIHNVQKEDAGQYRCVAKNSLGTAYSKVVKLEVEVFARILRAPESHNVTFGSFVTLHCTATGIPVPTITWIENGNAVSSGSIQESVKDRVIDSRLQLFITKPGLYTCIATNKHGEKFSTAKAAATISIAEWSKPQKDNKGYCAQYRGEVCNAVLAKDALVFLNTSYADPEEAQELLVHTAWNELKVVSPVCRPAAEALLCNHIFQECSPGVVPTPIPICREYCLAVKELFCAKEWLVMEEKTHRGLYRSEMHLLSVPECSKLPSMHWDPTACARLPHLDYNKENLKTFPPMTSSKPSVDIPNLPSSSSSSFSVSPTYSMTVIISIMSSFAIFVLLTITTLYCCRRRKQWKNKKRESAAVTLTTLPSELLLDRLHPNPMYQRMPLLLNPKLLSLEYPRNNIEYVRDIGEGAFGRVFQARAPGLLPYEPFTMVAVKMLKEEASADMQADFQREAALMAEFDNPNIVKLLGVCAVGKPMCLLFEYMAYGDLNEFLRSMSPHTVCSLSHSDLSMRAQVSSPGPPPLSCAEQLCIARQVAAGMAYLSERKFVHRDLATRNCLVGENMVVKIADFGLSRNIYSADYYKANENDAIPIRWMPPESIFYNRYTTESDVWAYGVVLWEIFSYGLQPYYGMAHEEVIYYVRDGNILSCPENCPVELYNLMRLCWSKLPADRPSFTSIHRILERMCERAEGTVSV

[15] = molecular target: Serine/threonine-protein kinase Nek5 (Homo sapiens) (UniProt Q6P3R8)
[16] = molecular target: Phosphatidylinositol 5-phosphate 4-kinase type-2 beta (Homo sapiens) (UniProt P78356)
[17] = molecular target: Serine/threonine-protein kinase PRP4 homolog (Homo sapiens) (UniProt Q13523)
[18] = molecular target: Proto-oncogene tyrosine-protein kinase ROS (Homo sapiens) (UniProt P08922)
[19] = molecular target: T2, Serine/threonine-protein kinase Sgk3 (Homo sapiens) (UniProt Q96BR1)
T2 sequence (whole entry): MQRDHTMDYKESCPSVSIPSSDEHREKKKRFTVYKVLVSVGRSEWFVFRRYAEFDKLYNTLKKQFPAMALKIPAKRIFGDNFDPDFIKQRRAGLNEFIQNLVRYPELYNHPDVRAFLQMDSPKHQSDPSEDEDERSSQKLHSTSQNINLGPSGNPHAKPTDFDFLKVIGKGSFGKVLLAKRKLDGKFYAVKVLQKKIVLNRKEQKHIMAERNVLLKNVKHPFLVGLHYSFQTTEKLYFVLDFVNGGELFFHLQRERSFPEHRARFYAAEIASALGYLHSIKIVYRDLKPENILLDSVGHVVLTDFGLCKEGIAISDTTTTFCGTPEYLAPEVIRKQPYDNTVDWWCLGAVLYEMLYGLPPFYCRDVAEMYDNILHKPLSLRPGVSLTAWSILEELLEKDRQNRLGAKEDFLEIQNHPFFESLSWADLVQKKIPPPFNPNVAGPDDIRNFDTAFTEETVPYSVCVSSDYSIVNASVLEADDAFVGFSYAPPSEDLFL

[20] = molecular target: T3, Alpha-1A adrenergic receptor (Homo sapiens) (UniProt P35348); conditions: Compound concentration 10.0 uM
T3 sequence (whole entry): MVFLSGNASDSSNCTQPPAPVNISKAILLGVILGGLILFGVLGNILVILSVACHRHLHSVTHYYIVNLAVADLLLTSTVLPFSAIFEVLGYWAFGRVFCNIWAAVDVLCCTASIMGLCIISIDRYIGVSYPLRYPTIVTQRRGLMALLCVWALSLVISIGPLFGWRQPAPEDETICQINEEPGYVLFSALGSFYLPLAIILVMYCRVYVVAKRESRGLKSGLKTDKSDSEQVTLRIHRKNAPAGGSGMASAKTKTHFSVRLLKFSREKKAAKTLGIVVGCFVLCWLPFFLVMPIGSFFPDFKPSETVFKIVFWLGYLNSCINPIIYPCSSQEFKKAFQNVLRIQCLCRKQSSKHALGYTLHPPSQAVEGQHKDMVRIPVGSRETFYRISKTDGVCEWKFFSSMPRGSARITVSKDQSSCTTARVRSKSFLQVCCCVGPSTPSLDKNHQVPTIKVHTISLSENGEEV

[21] = Compound concentration 1000.0 nM
[22] = Compound concentration 100.0 nM

Dual specificity mitogen-activated protein kinase kinase 4 (Homo sapiens), sequence (P45985 whole entry): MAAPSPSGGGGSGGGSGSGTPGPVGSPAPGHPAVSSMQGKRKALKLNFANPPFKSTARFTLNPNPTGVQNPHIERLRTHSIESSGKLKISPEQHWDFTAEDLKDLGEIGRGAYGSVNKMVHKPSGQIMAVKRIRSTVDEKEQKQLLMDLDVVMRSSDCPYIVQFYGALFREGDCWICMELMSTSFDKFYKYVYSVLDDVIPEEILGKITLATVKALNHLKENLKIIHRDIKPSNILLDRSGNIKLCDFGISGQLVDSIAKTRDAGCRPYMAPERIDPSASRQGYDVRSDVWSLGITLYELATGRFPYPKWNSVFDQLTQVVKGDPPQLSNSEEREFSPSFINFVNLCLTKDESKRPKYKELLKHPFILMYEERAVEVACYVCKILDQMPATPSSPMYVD
Tyrosine-protein kinase Fyn (Homo sapiens), sequence (P06241 2-537 limits assumed): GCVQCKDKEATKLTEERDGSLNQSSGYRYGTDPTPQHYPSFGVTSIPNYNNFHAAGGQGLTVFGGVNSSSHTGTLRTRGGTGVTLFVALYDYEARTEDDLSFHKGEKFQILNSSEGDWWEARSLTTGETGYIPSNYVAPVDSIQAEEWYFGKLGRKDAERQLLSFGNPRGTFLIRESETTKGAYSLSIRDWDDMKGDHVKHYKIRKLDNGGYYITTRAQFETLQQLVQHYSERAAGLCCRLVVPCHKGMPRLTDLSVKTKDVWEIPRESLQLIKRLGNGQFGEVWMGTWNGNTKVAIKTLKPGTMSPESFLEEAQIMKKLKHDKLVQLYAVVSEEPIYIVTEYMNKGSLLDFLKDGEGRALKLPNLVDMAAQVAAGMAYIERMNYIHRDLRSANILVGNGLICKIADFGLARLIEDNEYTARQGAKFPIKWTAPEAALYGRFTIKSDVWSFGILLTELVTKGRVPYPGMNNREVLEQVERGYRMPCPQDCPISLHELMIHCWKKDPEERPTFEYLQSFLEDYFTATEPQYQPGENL
Ephrin type-B receptor 6 (Homo sapiens), sequence (O15197 whole entry): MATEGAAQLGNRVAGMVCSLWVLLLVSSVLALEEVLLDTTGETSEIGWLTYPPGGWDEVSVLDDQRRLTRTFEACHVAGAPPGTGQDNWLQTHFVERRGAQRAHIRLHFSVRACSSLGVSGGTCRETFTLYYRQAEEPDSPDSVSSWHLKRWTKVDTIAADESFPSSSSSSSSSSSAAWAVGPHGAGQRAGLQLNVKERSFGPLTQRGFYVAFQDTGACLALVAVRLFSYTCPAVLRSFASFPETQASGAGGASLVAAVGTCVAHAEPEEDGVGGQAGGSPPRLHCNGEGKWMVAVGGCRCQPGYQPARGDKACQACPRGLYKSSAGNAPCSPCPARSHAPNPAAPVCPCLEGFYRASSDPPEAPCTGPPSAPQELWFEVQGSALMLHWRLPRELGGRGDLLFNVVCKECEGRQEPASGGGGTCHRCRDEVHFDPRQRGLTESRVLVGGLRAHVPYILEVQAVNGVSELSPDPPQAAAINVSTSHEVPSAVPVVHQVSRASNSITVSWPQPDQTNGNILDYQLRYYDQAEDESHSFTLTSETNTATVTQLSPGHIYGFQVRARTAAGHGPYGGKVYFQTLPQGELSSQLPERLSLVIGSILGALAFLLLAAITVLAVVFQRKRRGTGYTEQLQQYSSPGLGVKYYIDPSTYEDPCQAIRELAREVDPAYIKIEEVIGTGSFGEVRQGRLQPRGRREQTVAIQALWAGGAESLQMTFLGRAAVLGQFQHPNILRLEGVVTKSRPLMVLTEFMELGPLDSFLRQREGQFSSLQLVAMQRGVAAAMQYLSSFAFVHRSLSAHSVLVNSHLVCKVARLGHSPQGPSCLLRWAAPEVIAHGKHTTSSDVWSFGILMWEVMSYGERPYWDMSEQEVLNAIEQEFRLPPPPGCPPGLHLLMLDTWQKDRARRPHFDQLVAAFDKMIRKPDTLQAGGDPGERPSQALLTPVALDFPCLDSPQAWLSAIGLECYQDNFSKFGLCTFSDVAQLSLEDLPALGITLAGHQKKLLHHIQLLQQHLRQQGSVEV
Tyrosine-protein kinase ABL1 (Homo sapiens), sequence (P00519 whole entry, the tested form may be a part): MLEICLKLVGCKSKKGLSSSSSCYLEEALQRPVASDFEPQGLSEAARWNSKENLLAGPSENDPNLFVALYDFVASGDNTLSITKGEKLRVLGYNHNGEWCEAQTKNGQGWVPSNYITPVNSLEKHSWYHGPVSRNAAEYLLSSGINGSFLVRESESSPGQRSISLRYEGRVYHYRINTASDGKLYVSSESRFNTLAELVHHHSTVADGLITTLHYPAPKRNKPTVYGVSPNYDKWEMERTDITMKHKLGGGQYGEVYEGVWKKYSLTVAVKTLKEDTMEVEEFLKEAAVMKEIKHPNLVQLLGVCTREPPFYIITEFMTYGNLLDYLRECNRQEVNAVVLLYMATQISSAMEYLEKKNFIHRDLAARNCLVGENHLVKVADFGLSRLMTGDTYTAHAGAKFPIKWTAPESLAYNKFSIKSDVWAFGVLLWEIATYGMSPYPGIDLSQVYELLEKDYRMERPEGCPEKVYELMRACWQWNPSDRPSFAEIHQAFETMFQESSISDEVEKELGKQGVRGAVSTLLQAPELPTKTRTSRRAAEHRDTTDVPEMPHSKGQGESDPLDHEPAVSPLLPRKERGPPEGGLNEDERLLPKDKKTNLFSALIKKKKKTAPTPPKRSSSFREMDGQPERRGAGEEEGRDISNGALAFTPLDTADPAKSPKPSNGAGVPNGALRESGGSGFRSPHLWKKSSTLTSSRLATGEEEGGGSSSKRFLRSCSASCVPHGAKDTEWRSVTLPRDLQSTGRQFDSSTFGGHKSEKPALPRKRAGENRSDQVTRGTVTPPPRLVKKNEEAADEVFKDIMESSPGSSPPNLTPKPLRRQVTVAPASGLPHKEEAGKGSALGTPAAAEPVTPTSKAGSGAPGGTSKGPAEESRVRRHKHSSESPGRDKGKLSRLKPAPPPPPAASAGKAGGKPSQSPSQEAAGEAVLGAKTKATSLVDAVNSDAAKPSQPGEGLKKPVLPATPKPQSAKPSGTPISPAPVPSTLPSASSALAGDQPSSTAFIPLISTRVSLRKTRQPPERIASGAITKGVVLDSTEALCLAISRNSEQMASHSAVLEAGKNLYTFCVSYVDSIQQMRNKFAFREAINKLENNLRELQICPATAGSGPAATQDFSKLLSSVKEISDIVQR
Serine/threonine-protein kinase PRP4 homolog (Homo sapiens), sequence (Q13523 whole entry): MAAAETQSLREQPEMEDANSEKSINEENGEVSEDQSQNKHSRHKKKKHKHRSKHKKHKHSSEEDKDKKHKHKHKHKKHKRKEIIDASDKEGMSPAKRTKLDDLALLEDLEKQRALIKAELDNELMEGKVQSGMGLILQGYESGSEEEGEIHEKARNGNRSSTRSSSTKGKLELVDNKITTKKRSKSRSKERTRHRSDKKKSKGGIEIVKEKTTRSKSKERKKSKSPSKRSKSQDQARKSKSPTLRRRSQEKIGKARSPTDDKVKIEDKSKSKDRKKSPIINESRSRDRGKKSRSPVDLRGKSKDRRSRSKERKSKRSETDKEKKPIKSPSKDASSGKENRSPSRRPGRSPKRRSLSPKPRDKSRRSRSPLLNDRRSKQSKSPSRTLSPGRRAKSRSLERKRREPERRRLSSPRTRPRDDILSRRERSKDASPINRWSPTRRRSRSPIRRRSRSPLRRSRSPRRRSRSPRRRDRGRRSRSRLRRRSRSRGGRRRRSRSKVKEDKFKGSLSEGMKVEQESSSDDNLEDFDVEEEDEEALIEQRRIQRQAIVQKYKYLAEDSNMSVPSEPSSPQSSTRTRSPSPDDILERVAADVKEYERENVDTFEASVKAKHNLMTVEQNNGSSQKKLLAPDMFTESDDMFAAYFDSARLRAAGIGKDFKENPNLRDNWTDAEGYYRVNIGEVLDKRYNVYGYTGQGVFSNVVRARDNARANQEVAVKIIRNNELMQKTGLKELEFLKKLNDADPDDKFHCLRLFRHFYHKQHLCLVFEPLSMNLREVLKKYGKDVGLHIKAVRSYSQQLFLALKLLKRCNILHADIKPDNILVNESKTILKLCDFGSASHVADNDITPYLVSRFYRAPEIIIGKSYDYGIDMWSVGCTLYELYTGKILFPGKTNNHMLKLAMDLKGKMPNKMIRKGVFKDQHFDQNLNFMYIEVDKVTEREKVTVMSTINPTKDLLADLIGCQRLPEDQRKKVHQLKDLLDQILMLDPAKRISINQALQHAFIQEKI
Serine/threonine-protein kinase Nek5 (Homo sapiens), sequence (Q6P3R8 whole entry): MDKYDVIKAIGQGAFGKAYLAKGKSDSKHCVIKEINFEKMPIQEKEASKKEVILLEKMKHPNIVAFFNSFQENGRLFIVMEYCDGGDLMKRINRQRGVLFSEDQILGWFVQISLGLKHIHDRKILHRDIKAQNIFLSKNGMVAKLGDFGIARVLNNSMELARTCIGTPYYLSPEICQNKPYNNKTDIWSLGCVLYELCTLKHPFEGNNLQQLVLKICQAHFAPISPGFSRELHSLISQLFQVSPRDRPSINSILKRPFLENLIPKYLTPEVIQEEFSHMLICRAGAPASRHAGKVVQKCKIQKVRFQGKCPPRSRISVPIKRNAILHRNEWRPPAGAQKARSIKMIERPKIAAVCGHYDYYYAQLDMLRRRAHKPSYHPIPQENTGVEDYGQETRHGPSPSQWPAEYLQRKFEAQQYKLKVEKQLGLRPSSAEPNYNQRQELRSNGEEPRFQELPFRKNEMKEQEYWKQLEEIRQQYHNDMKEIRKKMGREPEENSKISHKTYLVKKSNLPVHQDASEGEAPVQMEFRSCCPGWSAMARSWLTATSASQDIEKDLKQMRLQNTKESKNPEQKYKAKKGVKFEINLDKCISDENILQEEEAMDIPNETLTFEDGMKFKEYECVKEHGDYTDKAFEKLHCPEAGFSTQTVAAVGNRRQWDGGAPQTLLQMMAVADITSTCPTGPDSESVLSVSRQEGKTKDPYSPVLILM
Tyrosine-protein kinase ABL1 (Homo sapiens), P00519 [F317L], sequence (P00519 whole entry F317L): as the sequence (P00519 whole entry, the tested form may be a part) above, with F317L counted along it

C[C@@H]1CN(c2cc(-c3nn(C)c4ccc(OC5(C)CC5)cc34)ncn2)C[C@H](C)O1 [MLi-2-NC]
inactive: residual activity [1, 21] 86% | residual activity [2, 21] 85% | residual activity [3, 21] 67% | residual activity [4, 21] 100% | residual activity [5, 21] 100% | residual activity [6, 21] 76% | residual activity [7, 21] 72% | residual activity [8, 21] 87% | residual activity [9, 21] 98% | residual activity [10, 21] 100% | residual activity [11, 21] 100% | residual activity [12, 21] 82% | residual activity [13, 21] 93% | residual activity [14, 21] 92% | residual activity [15, 21] 100% | residual activity [16, 21] 84% | residual activity [17, 21] 100% | residual activity [18, 21] 100% | residual activity [19, 21] 67% | inhibition [20] -3.6%

C[C@@H]1CN(c2cc(-c3n[nH]c4ccc(OC5(C)CC5)cc34)ncn2)C[C@H](C)O1 [MLi-2]
inactive: residual activity [1, 22] 82% | residual activity [2, 22] 87% | residual activity [3, 22] 79% | residual activity [4, 22] 100% | residual activity [5, 22] 91% | residual activity [6, 22] 92% | residual activity [7, 22] 81% | residual activity [8, 22] 69% | residual activity [9, 22] 100% | residual activity [10, 22] 100% | residual activity [11, 22] 96% | residual activity [12, 22] 73% | residual activity [13, 22] 90% | residual activity [14, 22] 56% | residual activity [15, 22] 100% | residual activity [16, 22] 81% | residual activity [17, 22] 83% | residual activity [18, 22] 100% | residual activity [19, 22] 84% | inhibition [20] 3.49%
